Laboratory results reported in patent publication US20210113602A1, “USE OF 6-THIO-2'-DEOXYGUANOSINE (6-THIO-dG) TO TREAT MELANOMA” (The Board of Regents of the University of Texas System, priority 2018, published 2021).

Assays:
KRAS mutant HCT116 cells = experiment: Cell death, Annexin V/PI; assay type: cell-based, human; conditions: 1 μM 6-thio-dG, 5 μM Gam
[1] = system: NRAS mutant melanoma cells; experiment: Mitochondrial ROS, MitoSox Red; assay type: cell-based, human; conditions: 1 μM 6-thio-dG for 7 days
Procedure: FIGS. 3a-g. Telomere dysfunction enhances oxidative stress leading to upregulation of an antioxidant program. (FIGS. 3a-d) NRASmut melanoma cells were transduced with TERT shRNA (FIG. 3a, FIG. 3c) or treated with 1 μM 6-thio-dG for 7 days (FIG. 3b, FIG. 3d). mRNA levels of the indicated genes were quantified by qRT-PCR (FIG. 3a, FIG. 3b). Mitochondrial superoxide production was measured by MitoSox Red fluorescence (FIG. 3c, FIG. 3d) and expressed as fluorescence relative to vector or DMSO controls. (FIG. 3e) NRASmut melanoma cells were treated with 1 μM of 6-thio-dG for the indicated times and SOD2 protein levels measured by Western blotting. (FIG. 3f) SOD2 was silenced using shRNA. Transduced M93-047 cells were treated with DMSO or 1 μM of 6-thio-dG and cell death was assessed by Annexin V/PI straining. (FIG. 3g) M93-047 cells were transduced with a SOD2 lentiviral construct or empty vector control (pLX304). Transduced cells were treated with increasing doses (1, 2.5 and 5 μM) of 6-thio-dG for 7 days and cell death was assessed. […]
FIGS. 4a-e. […] Cell death was assessed by Annexin V and PI staining. […] Cells were stained with Annexin V and PI and percent cell death was determined by flow cytometry. (FIGS. 4c-e) Cells were treated as in FIG. 4b and mitochondrial ROS levels were measured using Mitosox Red by FACS. […] P values were calculated using unpaired Student's t-test; * p<0.05; ***p<0.005. […]

[2] = system: NRAS mutant melanoma cells; experiment: Cell death by flow cytometry (PSVue or Annexin V/PI); assay type: cell-based
Procedure: (FIG. 2d) NRASmut melanoma cells and non-transformed human fibroblasts were treated with 1 or 5 μM 6-thio-dG for 7 or 14 days. Cell death was assessed by PSVUe staining. Percent of apoptotic cells is shown. […] (FIGS. 2f-g) Cells were treated with 1 μM 6-thio-dG for 7 days. […] Data represent average from three independent experiments±SEM. *p<0.05; **p<0.01; ***p<0.005 in unpaired Student's t-test.
(FIG. 3f) SOD2 was silenced using shRNA. Transduced M93-047 cells were treated with DMSO or 1 μM of 6-thio-dG and cell death was assessed by Annexin V/PI straining. (FIG. 3g) M93-047 cells were transduced with a SOD2 lentiviral construct or empty vector control (pLX304). Transduced cells were treated with increasing doses (1, 2.5 and 5 μM) of 6-thio-dG for 7 days and cell death was assessed. Data represent average from three independent experiments±SEM. *p<0.05; **p<0.01; ***p<0.005 in unpaired Student's t-test.
(FIG. 4a) NRASmut melanoma cells transduced with TERT shRNA were treated 7 days post infection with 5 μM Gamitrinib (Gam) for 48 h. Cell death was assessed by Annexin V and PI staining. (FIG. 4b) NRASmut melanoma cells and non-transformed fibroblasts were treated with 1 μM 6-thio-dG for 5 days. At day 5, culture medium was replaced and cells treated with 1 μM 6-thio-dG plus 5 μM Gam for two more days. Cells were stained with Annexin V and PI and percent cell death was determined by flow cytometry. […] Data represent average of three independent experiments ±SEM. P values were calculated using unpaired Student's t-test; * p<0.05; ***p<0.005.
(Supplementary FIG. 10a) NRASmut melanoma cells were treated with 6-thio-dG (1 μ) for 7 days total. At day 5, culture medium was replaced and cells were treated with 1 μM 6-thio-dG plus 1 mM Phenformin for two more days. Percent cell death was determined by flow cytometry following staining of cells with Annexin V and Propidium iodide. Data represent average of three independent experiments +/−SEM. *p<0.05 in unpaired Student's t-test.

[3] = system: NRAS-WT/BRAF-WT melanoma cells; experiment: Cell death, Annexin V/PI; assay type: cell-based, human; conditions: single agents or combination; 1 μM 6-thio-dG, 5 μM Gam
[4] = system: NRAS mutant melanoma cells; experiment: Telomere length, Southern blotting of TRF; assay type: cell-based, human; conditions: 1 μM for 14 days
Procedure: FIGS. 2a-h. […] (FIGS. 2a-c) NRASmut melanoma cells (FIG. 2a), BRAF-V600E/NRAS mutant cells derived from melanoma patients resistant to BRAF/MEK inhibitors (FIG. 2b), or non-transformed melanocytes and fibroblasts (FIG. 2c) were treated with 6-thio-dG for 7 days. Cell viability was measured by Alamar Blue assay and calculated relative to DMSO-treated cells. (FIG. 2d) NRASmut melanoma cells and non-transformed human fibroblasts were treated with 1 or 5 μM 6-thio-dG for 7 or 14 days. Cell death was assessed by PSVUe staining. Percent of apoptotic cells is shown. (FIG. 2e) Cells were treated with DMSO or 1 μM 6-thio-dG for 14 days and telomere length was assessed by Southern blotting of TRF. Mean TRF length expressed as kilobase pairs is indicated at the bottom. (FIGS. 2f-g) Cells were treated with 1 μM 6-thio-dG for 7 days. (FIG. 2f) ROS production was measured by H2DCFDA fluorescence and normalized to MSO treated cells. (FIG. 2g) DNA damage was assessed by γH2AX staining. Data represent average from three independent experiments±SEM. *p<0.05; **p<0.01; ***p<0.005 in unpaired Student's t-test. […] Tumor volume was measured and average tumor volume (n=4)±SEM was plotted vs. time.
Telomere length assay. […] The images were analyzed with Phosphorimager, visualized by Typhoon 9410 Imager (GE Healthcare), and processed with ImageQuant 5.2 software (Molecular Dynamics).

[5] = in mice; cited from earlier work
[6] = system: NRAS mutant melanoma cells; experiment: Relative cell number, Crystal Violet assay; assay type: cell-based, human; conditions: 6, 12 or 18 days; relative to DMSO
Procedure: Supplementary FIGS. 8a-d. NRAS mutant melanoma cells are sensitive to the telomere uncapping agent 6-thio-dG. NRAS^mut melanoma cells were treated with 6-thio-dG for 6, 12 or 18 days. (Supplementary FIG. 8a) Relative cell number was assessed by […] Violet assay and calculated relative to DMSO-treated cells. Data represent average of three independent experiments +/-SD. (Supplementary FIG. 8b) Representative pictures of cells treated with 6-thio-dG for the indicated days and stained with Crystal Violet. (Supplementary FIG. 8c) NRAS^mut cells were treated with 6-thio-dG for 7 days and telomere-induced foci (TIF) were determined by indirect immunofluorescence combined with fluorescence in situ hybridization (FISH). Cells were considered TIF-positive when for or more co-localizing foci of telomeres and γ-H2AX were found. (Supplementary FIG. 8d) Quantification of TIF assay. Cells were scored as TIF-positive when four or more γ-H2AX foci (green) were co-localizing with telomere foci (red). Data represent average of […]. P values were calculated by unpaired Student's t-test.

Structure (SMILES): Nc1nc2c(ncn2[C@H]2C[C@H](O)[C@@H](CO)O2)c(=S)[nH]1 [6-thio-dG, 6-thio-2′-deoxy-guanosine]
- cell death (KRAS mutant HCT116 cells): did not induce substantial death
- mitochondrial ROS levels [1]: increased mitochondrial ROS levels
- cell death ([2]; 1 or 5 μM for 7 or 14 days, PSVue staining): led to cell death
- apoptosis in SOD2 overexpressing cells ([2]; SOD2 lentiviral construct, 1, 2.5 and 5 μM 6-thio-dG): attenuated the apoptosis-inducing effects
- apoptosis in SOD2 depleted cells ([2]; SOD2 shRNA, 1 μM 6-thio-dG, M93-047, WM3000): enhanced the ability of 6-thio-dG to induce apoptosis
- cell death [3]: did not induce cell death
- telomere length (mean TRF) [4]: without evidence for significant telomere shortening
- alanine aminotransferase (ALT) [5]: no significant effects
- aspartate aminotransferase (AST) [5]: no significant effects
- creatinine levels [5]: no significant effects
- red blood cells [5]: no significant effects
- white blood cells [5]: no significant effects
- relative cell number (sensitivity) [6]: sensitive
